# Reference: ChEMBL document CHEMBL3046620, “Resistance monitoring to deltamethrin and chlorpyriphos-ethyl in 13 populations of Typhlodromus pyri Scheuten (Acari: Phytoseiidae) from vineyards in the southwest of France” (2008)
# Experiments:
# Type in all cases: functional
# Typhlodromus pyri [1] = assay: Miticidal activity against compound treated Phaseolus vulgaris leaf-fed female Typhlodromus pyri Scheuten 11 assessed as mortality at 855 mg/l sprayed on leaf disks measured after 3 days; details: Scheuten 11, foliar, 72 h
# Typhlodromus pyri [2] = assay: Miticidal activity against compound treated Phaseolus vulgaris leaf-fed female Typhlodromus pyri Scheuten 10 assessed as mortality at 855 mg/l sprayed on leaf disks measured after 3 days; details: Scheuten 10, foliar, 72 h
# Typhlodromus pyri [3] = assay: Miticidal activity against compound treated Phaseolus vulgaris leaf-fed female Typhlodromus pyri Scheuten 9 assessed as mortality at 855 mg/l sprayed on leaf disks measured after 3 days; details: Scheuten 9, foliar, 72 h
# Typhlodromus pyri [4] = assay: Miticidal activity against compound treated Phaseolus vulgaris leaf-fed female Typhlodromus pyri Scheuten 8 assessed as mortality at 855 mg/l sprayed on leaf disks measured after 3 days; details: Scheuten 8, foliar, 72 h
# Typhlodromus pyri [5] = assay: Miticidal activity against compound treated Phaseolus vulgaris leaf-fed female Typhlodromus pyri Scheuten 7 assessed as mortality at 855 mg/l sprayed on leaf disks measured after 3 days; details: Scheuten 7, foliar, 72 h
# Typhlodromus pyri [6] = assay: Miticidal activity against compound treated Phaseolus vulgaris leaf-fed female Typhlodromus pyri Scheuten 6 assessed as mortality at 855 mg/l sprayed on leaf disks measured after 3 days; details: Scheuten 6, foliar, 72 h
# Typhlodromus pyri [7] = assay: Miticidal activity against compound treated Phaseolus vulgaris leaf-fed female Typhlodromus pyri Scheuten 5 assessed as mortality at 855 mg/l sprayed on leaf disks measured after 3 days; details: Scheuten 5, foliar, 72 h
# Typhlodromus pyri [8] = assay: Miticidal activity against compound treated Phaseolus vulgaris leaf-fed female Typhlodromus pyri Scheuten 4 assessed as mortality at 855 mg/l sprayed on leaf disks measured after 3 days; details: Scheuten 4, foliar, 72 h
# Typhlodromus pyri [9] = assay: Miticidal activity against compound treated Phaseolus vulgaris leaf-fed female Typhlodromus pyri Scheuten 3 assessed as mortality at 855 mg/l sprayed on leaf disks measured after 3 days; details: Scheuten 3, foliar, 72 h
# Typhlodromus pyri [10] = assay: Miticidal activity against compound treated Phaseolus vulgaris leaf-fed female Typhlodromus pyri Scheuten 2 assessed as mortality at 855 mg/l sprayed on leaf disks measured after 3 days; details: Scheuten 2, foliar, 72 h
# Typhlodromus pyri [11] = assay: Miticidal activity against compound treated Phaseolus vulgaris leaf-fed female Typhlodromus pyri Scheuten 1 assessed as mortality at 855 mg/l sprayed on leaf disks measured after 3 days; details: Scheuten 1, foliar, 72 h
# Typhlodromus pyri [12] = assay: Miticidal activity against compound treated Phaseolus vulgaris leaf-fed female Typhlodromus pyri Scheuten 13 assessed as mortality at 855 mg/l sprayed on leaf disks measured after 3 days; details: Scheuten 13, foliar, 72 h
# Typhlodromus pyri [13] = assay: Miticidal activity against compound treated Phaseolus vulgaris leaf-fed female Typhlodromus pyri Scheuten 12 assessed as mortality at 855 mg/l sprayed on leaf disks measured after 3 days; details: Scheuten 12, foliar, 72 h
# Typhlodromus pyri [14] = assay: Miticidal activity against compound treated Phaseolus vulgaris leaf-fed female Typhlodromus pyri Scheuten 13 assessed as mortality at 17.5 mg/l sprayed on leaf disks measured after 3 days; details: Scheuten 13, foliar, 72 h
# Typhlodromus pyri [15] = assay: Miticidal activity against compound treated Phaseolus vulgaris leaf-fed female Typhlodromus pyri Scheuten 12 assessed as mortality at 17.5 mg/l sprayed on leaf disks measured after 3 days; details: Scheuten 12, foliar, 72 h
# Typhlodromus pyri [16] = assay: Miticidal activity against compound treated Phaseolus vulgaris leaf-fed female Typhlodromus pyri Scheuten 11 assessed as mortality at 17.5 mg/l sprayed on leaf disks measured after 3 days; details: Scheuten 11, foliar, 72 h
# Typhlodromus pyri [17] = assay: Miticidal activity against compound treated Phaseolus vulgaris leaf-fed female Typhlodromus pyri Scheuten 10 assessed as mortality at 17.5 mg/l sprayed on leaf disks measured after 3 days; details: Scheuten 10, foliar, 72 h
# Typhlodromus pyri [18] = assay: Miticidal activity against compound treated Phaseolus vulgaris leaf-fed female Typhlodromus pyri Scheuten 9 assessed as mortality at 17.5 mg/l sprayed on leaf disks measured after 3 days; details: Scheuten 9, foliar, 72 h
# Typhlodromus pyri [19] = assay: Miticidal activity against compound treated Phaseolus vulgaris leaf-fed female Typhlodromus pyri Scheuten 8 assessed as mortality at 17.5 mg/l sprayed on leaf disks measured after 3 days; details: Scheuten 8, foliar, 72 h
# Typhlodromus pyri [20] = assay: Miticidal activity against compound treated Phaseolus vulgaris leaf-fed female Typhlodromus pyri Scheuten 7 assessed as mortality at 17.5 mg/l sprayed on leaf disks measured after 3 days; details: Scheuten 7, foliar, 72 h
# Typhlodromus pyri [21] = assay: Miticidal activity against compound treated Phaseolus vulgaris leaf-fed female Typhlodromus pyri Scheuten 6 assessed as mortality at 17.5 mg/l sprayed on leaf disks measured after 3 days; details: Scheuten 6, foliar, 72 h
# Typhlodromus pyri [22] = assay: Miticidal activity against compound treated Phaseolus vulgaris leaf-fed female Typhlodromus pyri Scheuten 5 assessed as mortality at 17.5 mg/l sprayed on leaf disks measured after 3 days; details: Scheuten 5, foliar, 72 h
# Typhlodromus pyri [23] = assay: Miticidal activity against compound treated Phaseolus vulgaris leaf-fed female Typhlodromus pyri Scheuten 4 assessed as mortality at 17.5 mg/l sprayed on leaf disks measured after 3 days; details: Scheuten 4, foliar, 72 h
# Typhlodromus pyri [24] = assay: Miticidal activity against compound treated Phaseolus vulgaris leaf-fed female Typhlodromus pyri Scheuten 3 assessed as mortality at 17.5 mg/l sprayed on leaf disks measured after 3 days; details: Scheuten 3, foliar, 72 h
# Typhlodromus pyri [25] = assay: Miticidal activity against compound treated Phaseolus vulgaris leaf-fed female Typhlodromus pyri Scheuten 2 assessed as mortality at 17.5 mg/l sprayed on leaf disks measured after 3 days; details: Scheuten 2, foliar, 72 h
# Typhlodromus pyri [26] = assay: Miticidal activity against compound treated Phaseolus vulgaris leaf-fed female Typhlodromus pyri Scheuten 1 assessed as mortality at 17.5 mg/l sprayed on leaf disks measured after 3 days; details: Scheuten 1, foliar, 72 h
structure (smiles),measurement,setting,value
CCOP(=S)(OCC)Oc1nc(Cl)c(Cl)cc1Cl [CHLORPYRIFOS],mortality at 855 µg/mL,Typhlodromus pyri [1],10.4%
same,mortality at 855 µg/mL,Typhlodromus pyri [2],55.5%
same,mortality at 855 µg/mL,Typhlodromus pyri [3],74%
same,mortality at 855 µg/mL,Typhlodromus pyri [4],25.9%
same,mortality at 855 µg/mL,Typhlodromus pyri [5],40.9%
same,mortality at 855 µg/mL,Typhlodromus pyri [6],7.6%
same,mortality at 855 µg/mL,Typhlodromus pyri [7],8.3%
same,mortality at 855 µg/mL,Typhlodromus pyri [8],56.2%
same,mortality at 855 µg/mL,Typhlodromus pyri [9],23.6%
same,mortality at 855 µg/mL,Typhlodromus pyri [10],33.3%
same,mortality at 855 µg/mL,Typhlodromus pyri [11],41.1%
same,mortality at 855 µg/mL,Typhlodromus pyri [12],32.5%
same,mortality at 855 µg/mL,Typhlodromus pyri [13],7.9%
CC1(C)[C@H](C(=O)O[C@H](C#N)c2cccc(Oc3ccccc3)c2)[C@@H]1C=C(Br)Br [DELTAMETHRIN],mortality at 17.5 µg/mL,Typhlodromus pyri [14],75%
same,mortality at 17.5 µg/mL,Typhlodromus pyri [15],20.6%
same,mortality at 17.5 µg/mL,Typhlodromus pyri [16],62.9%
same,mortality at 17.5 µg/mL,Typhlodromus pyri [17],100%
same,mortality at 17.5 µg/mL,Typhlodromus pyri [18],74%
same,mortality at 17.5 µg/mL,Typhlodromus pyri [19],31.2%
same,mortality at 17.5 µg/mL,Typhlodromus pyri [20],23.6%
same,mortality at 17.5 µg/mL,Typhlodromus pyri [21],5.3%
same,mortality at 17.5 µg/mL,Typhlodromus pyri [22],86.1%
same,mortality at 17.5 µg/mL,Typhlodromus pyri [23],84.3%
same,mortality at 17.5 µg/mL,Typhlodromus pyri [24],61.8%
same,mortality at 17.5 µg/mL,Typhlodromus pyri [25],92%
same,mortality at 17.5 µg/mL,Typhlodromus pyri [26],90.2%
